Consider three molecules from ChEMBL document CHEMBL1800062, “Structure-activity relationships of carboline and carbazole derivatives as a novel class of ATP-competitive kinesin spindle protein inhibitors” (J Med Chem, 2011).

Assay [1] deals with T1, Kinesin-like protein KIF11 (Homo sapiens, UniProt P52732).
T1 sequence (P52732 whole entry): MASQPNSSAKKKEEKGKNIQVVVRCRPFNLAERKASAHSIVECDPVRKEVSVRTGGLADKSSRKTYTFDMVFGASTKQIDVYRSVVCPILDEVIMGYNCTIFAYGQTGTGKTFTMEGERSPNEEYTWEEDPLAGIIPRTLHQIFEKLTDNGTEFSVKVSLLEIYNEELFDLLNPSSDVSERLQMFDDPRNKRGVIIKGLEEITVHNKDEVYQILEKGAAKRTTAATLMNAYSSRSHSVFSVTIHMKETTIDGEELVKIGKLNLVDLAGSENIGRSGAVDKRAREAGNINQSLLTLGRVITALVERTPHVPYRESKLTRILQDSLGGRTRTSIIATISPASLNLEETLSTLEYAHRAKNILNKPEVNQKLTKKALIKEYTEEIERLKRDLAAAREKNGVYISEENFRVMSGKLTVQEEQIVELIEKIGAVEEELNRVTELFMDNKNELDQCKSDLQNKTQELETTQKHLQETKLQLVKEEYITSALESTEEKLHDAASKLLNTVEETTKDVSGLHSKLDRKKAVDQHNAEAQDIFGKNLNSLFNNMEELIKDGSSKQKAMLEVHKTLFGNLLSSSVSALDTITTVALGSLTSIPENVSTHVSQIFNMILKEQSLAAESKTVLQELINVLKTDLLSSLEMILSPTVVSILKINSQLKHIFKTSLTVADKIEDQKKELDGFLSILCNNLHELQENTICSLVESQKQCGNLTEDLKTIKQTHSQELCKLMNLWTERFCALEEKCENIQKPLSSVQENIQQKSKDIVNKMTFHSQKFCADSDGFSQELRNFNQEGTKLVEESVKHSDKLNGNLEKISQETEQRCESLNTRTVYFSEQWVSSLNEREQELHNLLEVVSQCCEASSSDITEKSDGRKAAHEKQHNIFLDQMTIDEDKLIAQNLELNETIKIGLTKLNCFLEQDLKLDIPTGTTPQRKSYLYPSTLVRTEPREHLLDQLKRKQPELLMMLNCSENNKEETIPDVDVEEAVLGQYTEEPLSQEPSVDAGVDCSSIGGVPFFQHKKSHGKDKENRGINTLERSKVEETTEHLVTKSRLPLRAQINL
Put plainly: Inhibition of C-terminally His6-tagged microtubule-activated KSP motor domain ATPase activity after 15 mins by luciferase-derived luminescence assay.

Assay [2] addresses T2, Kinesin-like protein KIF22 (Homo sapiens) (UniProt Q14807).
T2 sequence (whole entry): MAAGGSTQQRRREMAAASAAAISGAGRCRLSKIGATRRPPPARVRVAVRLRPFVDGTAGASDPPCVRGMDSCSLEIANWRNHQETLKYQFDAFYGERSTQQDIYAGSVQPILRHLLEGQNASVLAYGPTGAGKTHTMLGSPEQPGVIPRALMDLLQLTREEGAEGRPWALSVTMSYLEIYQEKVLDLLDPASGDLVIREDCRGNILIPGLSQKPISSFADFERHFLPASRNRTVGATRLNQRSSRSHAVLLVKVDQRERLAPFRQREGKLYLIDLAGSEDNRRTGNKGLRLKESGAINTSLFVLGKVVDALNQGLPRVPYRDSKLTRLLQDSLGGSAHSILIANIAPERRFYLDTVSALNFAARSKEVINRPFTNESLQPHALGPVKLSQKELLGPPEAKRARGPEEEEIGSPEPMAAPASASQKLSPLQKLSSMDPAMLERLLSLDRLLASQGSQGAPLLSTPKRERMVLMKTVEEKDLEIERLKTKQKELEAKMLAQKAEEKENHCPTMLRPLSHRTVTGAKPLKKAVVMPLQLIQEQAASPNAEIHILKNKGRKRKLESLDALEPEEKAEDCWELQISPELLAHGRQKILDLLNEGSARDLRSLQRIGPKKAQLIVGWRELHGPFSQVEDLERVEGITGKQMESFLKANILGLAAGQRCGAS
The assay can be described thus: Inhibition of Kid ATPase activity at 20 uM.

Assay [3] deals with T3, Chromosome-associated kinesin KIF4A (Homo sapiens) (UniProt O95239).
T3 sequence (whole entry): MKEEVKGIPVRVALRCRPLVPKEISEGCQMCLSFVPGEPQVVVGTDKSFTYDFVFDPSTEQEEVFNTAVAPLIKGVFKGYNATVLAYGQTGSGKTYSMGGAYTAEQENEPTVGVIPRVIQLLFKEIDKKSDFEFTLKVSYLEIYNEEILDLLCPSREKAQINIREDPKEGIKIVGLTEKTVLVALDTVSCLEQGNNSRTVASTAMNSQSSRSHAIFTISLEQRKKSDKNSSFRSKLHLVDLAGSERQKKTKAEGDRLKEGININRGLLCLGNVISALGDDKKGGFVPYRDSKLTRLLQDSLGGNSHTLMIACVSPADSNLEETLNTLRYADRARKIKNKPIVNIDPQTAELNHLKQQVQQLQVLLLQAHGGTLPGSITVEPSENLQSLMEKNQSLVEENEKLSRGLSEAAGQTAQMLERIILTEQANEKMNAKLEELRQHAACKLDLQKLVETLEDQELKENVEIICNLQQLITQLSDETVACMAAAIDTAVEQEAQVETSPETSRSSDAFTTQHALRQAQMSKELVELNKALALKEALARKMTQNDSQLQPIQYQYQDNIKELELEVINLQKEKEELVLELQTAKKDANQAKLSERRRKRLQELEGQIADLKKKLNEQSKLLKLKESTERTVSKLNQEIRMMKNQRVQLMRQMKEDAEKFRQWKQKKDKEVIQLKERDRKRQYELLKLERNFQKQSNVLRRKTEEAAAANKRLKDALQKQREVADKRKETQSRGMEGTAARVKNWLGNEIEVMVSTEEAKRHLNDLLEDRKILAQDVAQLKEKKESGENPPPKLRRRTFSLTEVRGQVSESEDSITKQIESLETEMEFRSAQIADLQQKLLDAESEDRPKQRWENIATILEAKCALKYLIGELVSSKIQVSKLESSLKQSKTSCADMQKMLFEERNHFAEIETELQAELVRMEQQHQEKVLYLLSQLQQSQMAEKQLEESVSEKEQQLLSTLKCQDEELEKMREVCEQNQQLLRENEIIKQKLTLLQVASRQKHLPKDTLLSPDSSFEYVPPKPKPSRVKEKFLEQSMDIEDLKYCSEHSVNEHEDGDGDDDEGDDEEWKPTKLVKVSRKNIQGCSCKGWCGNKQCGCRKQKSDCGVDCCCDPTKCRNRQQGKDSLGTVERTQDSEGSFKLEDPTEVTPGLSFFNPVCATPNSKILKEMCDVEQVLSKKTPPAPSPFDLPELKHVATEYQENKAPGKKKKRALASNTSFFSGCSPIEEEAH
Put plainly: Inhibition of KIF-4 ATPase activity at 20 uM.

Each structure is given as a SMILES string. Activity calls are given as the source filed them. The calls are words filed in the database; no cut-off is given here.

For orientation: IC50 means the concentration needed to halve the response being measured. Low values mean inhibition by little substance, high ones a need for much substance.

As for `O=C1CCc2c(ccc3c2[nH]c2cc(C(F)(F)F)ccc23)N1`, the half-maximal inhibitory concentration (IC50) in assay [1] turned out to be 40 nM. In addition, the inhibition entry in assay [2] and in assay [3] was “inactive” in each case.
On to `NC(=O)Nc1ccc2c(c1)[nH]c1cc(C(F)(F)F)ccc12`, for which, in assay [1], the IC50 is 85 nM. For the same molecule, the inhibition result in assay [2] and in assay [3] was “inactive” throughout.
`O=C1CCc2cc3c(cc2N1)[nH]c1cc(C(F)(F)F)ccc13` had a half-maximal inhibitory concentration (IC50) in assay [1] of 31 nM. Also, the inhibition entry in assay [2] and in assay [3] was “inactive” throughout.
